Columns and labels:
Human eosinophils = test: Eosinophil degranulation measured by EDN release (RIA); type: cell-based
Protocol: The ability to induce eosinophilic degranulation was measured by EDN release. Human eosinophils were isolated from normal volunteers and volunteers reporting past allergies, hay fever, and/or asthma by Percoll density gradient centrifugation and magnetic cell sorting using MACS anti-CD16 microbeads as described by Hansel et al. (1991, J. Immunol. Methods, 145:105). Briefly, after peripheral blood was overlaid on an isotonic Percoll solution (1.084 g/ml; Sigma), the blood was centrifuged at 1000×g for 30 minutes at 4° C. Mononuclear cells at the interface were removed, and erythrocytes in the sediment were lysed by two cycles of hypotonic water lysis. Isolated granulocytes were washed twice with PIPES buffer (25 mM PIPES, 50 mM NaCl, 5 mM KCl, 25 mM NaOH, 5.4 mM glucose, pH 7.4) containing 1% bovine calf serum (Hyclone Laboratories; Logan, Utah). Cells were then incubated with an equal volume of anti-CD16-conjugated magnetic beads (Miltenyi Biotec, Auburn, Calif.) for 30 minutes at 4° C. with occasional gentle mixing. After 30 minutes of incubation on ice, cells were loaded onto a separation column positioned in the strong magnetic field of the MACS. Cells were eluted three times with 5 mL of PIPES buffer containing 1% bovine calf serum. The purity of eosinophils, as counted by Randolph's stain, was regularly >98%. Purified eosinophils were used immediately for experiments.
To monitor eosinophil degranulation, 200 μL of freshly isolated eosinophils were resuspended in HBSS with 25 mM HEPES and 0.01% gelatin at 5×10^5 cells/mL and incubated with the a particular fungal extract. […] To quantitate eosinophil degranulation, the concentration of one of the eosinophil granule proteins in the sample supernatants, EDN, was measured by specific RIA, as described previously (Horie & Kita, 1994, J. Immunol., 152:5457). […] Total cellular EDN was measured in parallel supernatants from cells lysed with Nonidet P-40 detergent (Sigma Chemical Co.). […]

eosinophils = test: Intracellular calcium [Ca^2+]i in eosinophils (indo-1, flow cytometer); type: cell-based, human; conditions: 100 μg/mL extract or 10 ng/mL IL-5, 37° C.
Protocol: Real time changes in cytosolic free Ca^2+ (intracellular Ca^2+ concentration ([Ca^2+]i)) were measured in a flow cytometer using the fluorescent calcium indicator indo-1 (Rabinovitch et al., 1986, J. Immunol., 137:952; Grynkiewicz et al., 1985, J. Biol Chem., 260:3440). Indicator was introduced into cells by incubating 1 mL of eosinophils at a concentration of 1 to 2×10^6 cells/mL with 3 μM indo-1/AM (Molecular Probes, Eugene, Oreg.) in phenol red-free RPMI 1640 medium supplemented with 10% alpha calf serum and 10 mM HEPES for 30 minutes at 37° C. After washing, cells were suspended in RPMI with 0.1% HSA and 10 mM HEPES at 1×10^6 cells/mL. To measure [Ca^2+]i, cells were stimulated with 100 μg/mL Alternaria culture extract or 10 ng/mL IL-5, and fluorescence was analyzed by a FACS analyzer equipped with an ion-argon laser (Becton Dickinson). [Ca^2+]i was monitored on the basis of the ratio of the fluorescence of the calcium-bound indo-1 emission (401 nm) and the free indo-1 emission (475 nm). In addition, the [Ca^2+] in the medium can be manipulated to determine the effect on [Ca^2+]i.

[1] = tested on: Human peripheral blood eosinophils; test: IL-8 production by eosinophils (ELISA); type: cell-based; conditions: 0.01 μg/mL, 24 hours
Protocol: Human peripheral blood eosinophils can produce and release proinflammtory cytokines including IL-8. Eosinophils were incubated with 50 μg/mL or 100 μg/mL of Alternaria, or with 0.01 μg/mL IL-5, and the amount of IL-8 was measured. Purified eosinophils (1 mL at 1×10^6 cells/mL) were cultured in RPMI 1640 medium supplemented with 10% BCS in the presence of Alternaria or IL-5 using 48-well tissue culture plates (Costar, Cambridge, Mass.). After incubating the eosinophils with Alternaria or IL-5 for 24 hours at 37° C. in an atmosphere of 5% CO2, cell free supernatants were collected and frozen at −20° C. The concentrations of IL-8 in the supernatants were measured using an ELISA kit (Quantikine IL-8 Immunoassay Kit, R&D Systems, Minneapolis, Minn.). The threshold sensitivity of the kit was 4 pg/mL.

IL-5: cytokine used as reference stimulus of eosinophil degranulation
EDN release (Human eosinophils; 10 ng/mL): 52.1±6.5 ng EDN/10^6 cells
EDN release, eosinophils from allergy patients versus normal individuals (Human eosinophils; 100 μg/mL Alternaria culture extracts or 10 ng/mL IL-5): no difference
EDN release at 4° C. (Human eosinophils; incubation at 4° C. for 3 hours): abrogated EDN release
change in [Ca^2+]i (eosinophils): no elevation of [Ca^2+]i
IL-8 production from eosinophils [1]: very little IL-8

Source: patent publication US20060165732A1, “Fungal antigens and eosinophil activity” (priority 2002, published 2006)
